IC50 data for three compounds are collected here from patent publication US20220340579A1, “PYRAZOLYL BICYCLIC AMINES AS CDK2 INHIBITORS” (Incyte Corporation, priority 2021, published 2022).

Molecules are shown by their SMILES. A value given as a limit tells only on which side of the number the result lay.

The target in this assay is T1, CDK2/Cyclin E1 (Homo sapiens, UniProt P24941).
T1 construct: enzyme activity assays utilize full-length human CDK2; GST (N); purchased Carna 04-165; host or cells: baculovirus expression system
The assay is described as follows: CDK2/Cyclin E1 HTRF enzyme activity assay. It counts as biochemical. The settings on record: 1 mM ATP. The procedure: Example A. CDK2/Cyclin E1 HTRF Enzyme Activity Assay
CDK2/Cyclin E1 enzyme activity assays utilize full-length human CDK2 co-expressed as N-terminal GST-tagged protein with FLAG-Cyclin E1 in a baculovirus expression system (Carna Product Number 04-165). Assays were conducted in white 384-well polystyrene plates in a final reaction volume of 8 μL. CDK2/Cyclin E1 (0.25 nM) was incubated with the compounds of the Examples (40 nL serially diluted in DMSO) in the presence of ATP (50 μM or 1 mM) and 50 nM ULight™-labeled eIF4E-binding protein 1 (THR37/46) peptide (PerkinElmer) in assay buffer (containing 50 mM HEPES pH 7.5, 1 mM EGTA, 10 mM MgCl2, 2 mM DTT, 0.05 mg/mL BSA, and 0.01% Tween 20) for 60 minutes at room temperature. The reactions were stopped by the addition of EDTA and Europium-labeled anti-phospho-4E-BP1 antibody (PerkinElmer), for a final concentration of 15 mM and 1.5 nM, respectively. HTRF signals were read after 1 hour at room temperature on a PHERAstar FS plate reader (BMG Labtech). Data was analyzed with IDBS XLFit and GraphPad Prism 5.0 software using a three or four parameter dose response curve to determine IC50 for each compound.

The term IC50 denotes the concentration that inhibits the measured activity by half. A high value points to lower potency. As for `C[C@@H]1CN(S(C)(=O)=O)CC[C@@H]1Nc1nc2cnc(-c3cn[nH]c3)c(OCC(F)(F)F)n2n1` [Example 3, N-((3R,4S)-3-Methyl-1-(methylsulfonyl)piperidin-4-yl)-6-(1H-pyrazol-4-yl)-5-(2,2,2-trifluoroethoxy)-[1,2,4]triazolo[1,5-a]pyrazin-2-amine], the IC50 is ≤ 10 nM. The same measure for `C[C@@H]1CN(S(C)(=O)=O)CC[C@@H]1Nc1nc2c(OCC(F)(F)F)c(-c3cn[nH]c3)ncn2n1` [Example 2, N-((3R,4S)-3-Methyl-1-(methylsulfonyl)piperidin-4-yl)-7-(1H-pyrazol-4-yl)-8-(2,2,2-trifluoroethoxy)-[1,2,4]triazolo[1,5-c]pyrimidin-2-amine]: ≤ 10 nM; for `C[C@@H]1CN(S(C)(=O)=O)CC[C@@H]1Nc1nc2c(OC3CCC3)c(-c3cn[nH]c3)ncn2n1` [Example 1, 8-Cyclobutoxy-N-((3R,4S)-3-methyl-1-(methylsulfonyl)piperidin-4-yl)-7-(1H-pyrazol-4-yl)-[1,2,4]triazolo[1,5-c]pyrimidin-2-amine]: ≤ 10 nM.
